Experimental findings from ChEMBL document CHEMBL1134339, “New 1-aryl-3-(4-arylpiperazin-1-yl)propane derivatives, with dual action at 5-HT1A serotonin receptors and serotonin transporter, as a new class of antidepressants” (J Med Chem, 2001) are described below.

In test [1] the target is Sodium-dependent serotonin transporter (Rattus norvegicus, UniProt P31652). As to the kind of experiment: Binding affinity towards Serotonin transporter from rat cortex measured using [3H]paroxetine. Particulars: read-out: Ki.
In test [2] the target is T1, 5-hydroxytryptamine receptor 1A (Rattus norvegicus, UniProt P19327).
T1 sequence (P19327 whole entry): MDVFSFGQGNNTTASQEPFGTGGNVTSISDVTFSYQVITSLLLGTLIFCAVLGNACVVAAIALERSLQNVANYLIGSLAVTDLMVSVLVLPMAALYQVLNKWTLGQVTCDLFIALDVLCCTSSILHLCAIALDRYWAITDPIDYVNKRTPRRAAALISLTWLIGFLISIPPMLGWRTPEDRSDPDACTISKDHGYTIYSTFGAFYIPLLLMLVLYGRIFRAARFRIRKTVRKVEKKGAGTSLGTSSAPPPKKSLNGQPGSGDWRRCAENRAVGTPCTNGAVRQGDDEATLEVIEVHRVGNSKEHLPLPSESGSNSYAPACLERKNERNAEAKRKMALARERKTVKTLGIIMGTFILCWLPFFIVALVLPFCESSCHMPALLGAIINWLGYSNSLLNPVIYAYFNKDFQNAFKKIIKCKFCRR
The test is described as follows: Binding affinity to 5-hydroxytryptamine 1A receptor (5-HT 1A receptor, serotonin receptor) from rat cortex using [3H]8-OH-DPAT as radioligand.

Sequence of Sodium-dependent serotonin transporter (P31652 whole entry): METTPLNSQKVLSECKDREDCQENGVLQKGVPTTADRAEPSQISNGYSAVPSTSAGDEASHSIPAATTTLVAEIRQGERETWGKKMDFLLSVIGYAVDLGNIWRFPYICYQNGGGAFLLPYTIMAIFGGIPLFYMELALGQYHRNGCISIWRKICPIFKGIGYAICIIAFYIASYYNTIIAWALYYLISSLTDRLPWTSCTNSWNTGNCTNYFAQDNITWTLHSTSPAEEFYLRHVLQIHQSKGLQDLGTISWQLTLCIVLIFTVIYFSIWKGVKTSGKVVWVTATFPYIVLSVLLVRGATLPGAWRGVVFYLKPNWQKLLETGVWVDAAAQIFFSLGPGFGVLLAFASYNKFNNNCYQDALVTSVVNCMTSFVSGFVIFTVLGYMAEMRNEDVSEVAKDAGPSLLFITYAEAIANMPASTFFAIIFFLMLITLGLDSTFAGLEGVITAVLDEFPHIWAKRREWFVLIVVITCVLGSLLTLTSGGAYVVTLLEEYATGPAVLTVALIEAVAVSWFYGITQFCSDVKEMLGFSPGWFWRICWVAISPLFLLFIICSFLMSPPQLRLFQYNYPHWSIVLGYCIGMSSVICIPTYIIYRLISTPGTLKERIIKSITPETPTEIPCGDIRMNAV

By Ki is commonly meant a dissociation constant, usually derived from enzyme kinetics or from competition with a known ligand. For the compound `COc1ccccc1N1CCN(CCC(=O)c2ccccc2)CC1`, the inhibitory constant (Ki) in test [1] is over 5000 nM.

For `COc1ccccc1N1CCN(CCC(O)c2ccc(-c3ccccc3)cc2)CC1` (stereo not given), the values for the Ki in test [2] and in test [1] were 850 nM and 175 nM, respectively.

Turning to `COc1ccccc1N1CCN(CCC(O)c2ccsc2)CC1` (stereo not given), the Ki turned out to be 50 nM in test [2] (read-out: Ki) and 385 nM in test [1].

For the compound `FC(F)(F)c1ccc(OC(CCN2CCN(c3ccccc3Cl)CC2)c2ccccc2)cc1` (stereo not given), the Ki in test [2] (read-out: Ki) and in test [1] was over 5000 nM throughout.

Consider `COc1ccccc1N1CCN(CCC(=O)c2cc(C)sc2C)CC1`, for which the Ki in test [2] (read-out: Ki) was determined as 5 nM; in test [1] it was 1350 nM.

On to `OC(CCN1CCN(c2ccc(F)cc2)CC1)c1ccccc1` (stereo not given), for which the inhibition constant (Ki) in test [2] stood at 145 nM; in test [1], 4700 nM.

Regarding `OC(CCN1CCN(c2ccc(Cl)cc2)CC1)c1ccsc1` (stereo not given), in test [1], the Ki came to 200 nM.

As to `COc1ccc(C(=O)CCN2CCN(c3ccccc3OC)CC2)cc1`, the inhibition constant Ki in test [1] is over 5000 nM.

Consider `COc1ccc(C(CCN2CCN(c3ccccc3OC)CC2)Oc2ccc(C(F)(F)F)cc2)cc1` (stereo not given), for which the Ki in test [2] (read-out: Ki) worked out at 1000 nM; in test [1] it was 650 nM.

For the compound `O=C(CCN1CCN(c2ccccc2O)CC1)c1csc2ccccc12`, the Ki in test [2] is 110 nM; in test [1], 490 nM.

For the compound `O=C(CCN1CCN(c2ccc(Cl)cc2)CC1)c1ccsc1`, the Ki in test [1] is 220 nM.

`COc1ccccc1N1CCN(CC/C(=N/O)c2ccc(C)s2)CC1`: the inhibition constant (Ki) in test [2] (read-out: Ki) is 75 nM; in test [1], 5000 nM.

With `O=C(CCN1CCN(c2ccc([N+](=O)[O-])cc2)CC1)c1ccccc1`, the inhibition constant (Ki) in test [2] (read-out: Ki) and in test [1] was over 5000 nM throughout.

Turning to `COc1ccccc1N1CCN(CCC(Oc2ccc(C(F)(F)F)cc2)c2ccsc2)CC1` (stereo not given), the Ki in test [2] came out at 255 nM; in test [1], 460 nM.

On to `COc1ccccc1N1CCN(CCC(O)c2ccc([N+](=O)[O-])cc2)CC1` (stereo not given), for which the figures for the Ki in test [2] (read-out: Ki) and in test [1] were 10 nM and 2500 nM, respectively.

For the compound `COc1ccccc1N1CCN(CCC(=O)c2cccs2)CC1`, the Ki in test [2] (read-out: Ki) is 10 nM; in test [1] it was over 5000 nM.

Regarding `Clc1ccc(N2CCN(CCC(Oc3ccc4c(c3)OCO4)c3ccccc3)CC2)cc1` (stereo not given), the results for the Ki in test [2] and in test [1] were 550 nM and 375 nM, respectively.

Consider `O=C(CCN1CCN(c2ccc(Cl)cc2)CC1)c1ccc2ccccc2c1`, for which the Ki in test [2] (read-out: Ki) is over 5000 nM; in test [1] it was 240 nM.

On to `Cc1cc(C(=O)CCN2CCN(c3cccc4ccccc34)CC2)c(C)s1`, for which the Ki in test [2] (read-out: Ki) was 100 nM; in test [1] it was 370 nM.

Regarding `O=C(CCN1CCN(c2ccccc2Cl)CC1)c1ccsc1`, the figures for the Ki in test [2] (read-out: Ki) and in test [1] were 200 nM and over 5000 nM, respectively.

Consider `OC(CCN1CCN(c2ncccn2)CC1)c1ccccc1` (stereo not given), for which the Ki is 375 nM in test [2] and over 5000 nM in test [1].

As to `OC(CCN1CCN(c2ccc(Cl)cc2)CC1)c1ccc2ccccc2c1` (stereo not given), the Ki is over 5000 nM in test [2] (read-out: Ki) and 10 nM in test [1].

With `FC(F)(F)c1ccc(OC(CCN2CCN(c3ccccn3)CC2)c2ccccc2)cc1` (stereo not given), the Ki in test [1] amounted to 1500 nM.

As for `COc1ccccc1N1CCN(CCC(=O)c2ccc([N+](=O)[O-])cc2)CC1`, the Ki in test [2] (read-out: Ki) was 50 nM; in test [1] it was over 5000 nM.

On to `COc1ccccc1N1CCN(CC/C(=N\O)c2cc(C)sc2C)CC1`, for which the inhibitory constant (Ki) in test [2] (read-out: Ki) was 85 nM; in test [1], 5000 nM.

Take `OC(CCN1CCN(c2ccc(Cl)cc2)CC1)c1cccs1` (stereo not given): the Ki in test [2] (read-out: Ki) is over 5000 nM; in test [1] it was 290 nM.

For `COc1ccccc1N1CCN(CCC(O)c2ccc(C)s2)CC1` (stereo not given), the Ki in test [2] stood at 34 nM; in test [1], 5000 nM.

`COc1cc(F)ccc1N1CCN(CCC(=O)c2csc3ccccc23)CC1`: the Ki in test [2] (read-out: Ki) and in test [1] was 500 nM throughout.

Turning to `COc1ccccc1N1CCN(CCC(Oc2ccc(C(F)(F)F)cc2)c2ccc(-c3ccccc3)cc2)CC1` (stereo not given), the Ki in test [2] (read-out: Ki) and in test [1] was over 5000 nM throughout.

For the compound `OC(CCN1CCN(c2ccccn2)CC1)c1ccccc1` (stereo not given), the Ki in test [2] is 155 nM; in test [1] it was over 5000 nM.

Regarding `FC(F)(F)c1ccc(OC(CCN2CCN(c3ccc(Cl)cc3)CC2)c2ccccc2)cc1` (stereo not given), the Ki in test [2] (read-out: Ki) is over 5000 nM; in test [1], 350 nM.

Consider `OC(CCN1CCN(c2ccc(Cl)cc2)CC1)c1ccccc1` (stereo not given), for which the Ki in test [2] (read-out: Ki) was 800 nM; in test [1] it was 350 nM.

For the compound `COc1ccccc1N1CCN(CCC(Oc2ccc(C(F)(F)F)cc2)c2ccccc2)CC1` (stereo not given), the Ki in test [2] amounted to 450 nM; in test [1], 650 nM.

Turning to `OC(CCN1CCN(c2ccc(Cl)cc2)CC1)c1csc2ccccc12` (stereo not given), the Ki came out at 5000 nM in test [2] (read-out: Ki) and 50 nM in test [1].

For `COc1ccccc1N1CCN(CCC(Oc2ccc3c(c2)OCO3)c2ccsc2)CC1` (stereo not given), the Ki stood at 55 nM in test [2] and 6500 nM in test [1].

On to `O=C(CCN1CCN(c2ccccc2Cl)CC1)c1ccccc1`, for which the Ki in test [2] (read-out: Ki) is 180 nM; in test [1], over 5000 nM.

Turning to `COc1ccccc1N1CCN(CCC(Oc2ccc3c(c2)OCO3)c2ccccc2)CC1` (stereo not given), the Ki in test [2] (read-out: Ki) turned out to be 20 nM; in test [1], 500 nM.

For the compound `COc1ccc(OC(CCN2CCN(c3ccccc3OC)CC2)c2ccccc2)cc1` (stereo not given), the Ki in test [2] is 90 nM; in test [1], 1450 nM.

Take `COc1cc(F)ccc1N1CCN(CCC(=O)c2cc(C)sc2C)CC1`: the Ki in test [2] (read-out: Ki) stood at 13 nM; in test [1], 750 nM.

Turning to `COc1ccccc1N1CCN(CCC(=O)c2ccc3ccccc3c2)CC1`, the values for the Ki in test [2] (read-out: Ki) and in test [1] were 250 nM and 1000 nM, respectively.

In the case of `COc1ccc(C(O)CCN2CCN(c3ccccc3OC)CC2)cc1` (stereo not given), the Ki in test [2] stood at 325 nM; in test [1] it was 500 nM.

As to `COc1ccccc1N1CCN(CC/C(=N/O)c2cc(C)sc2C)CC1`, the Ki in test [2] (read-out: Ki) is 130 nM; in test [1], over 5000 nM.

`O/N=C(\CCN1CCN(c2ccc(Cl)cc2)CC1)c1ccccc1`: the Ki was over 5000 nM in test [2] (read-out: Ki) and 5000 nM in test [1].

On to `COc1ccccc1N1CCN(CCC(=O)c2ccc([N+](=O)[O-])s2)CC1`, for which the Ki in test [2] was 340 nM; in test [1], over 5000 nM.

Turning to `O=C(CCN1CCN(c2ncccn2)CC1)c1ccccc1`, the Ki was 120 nM in test [2] and over 5000 nM in test [1].

`O=C(CCN1CCN(c2cccc3ccccc23)CC1)c1csc2ccccc12`: the Ki turned out to be 100 nM in test [2] (read-out: Ki) and 500 nM in test [1].

As to `COc1ccc(N2CCN(CCC(O)c3ccccc3)CC2)cc1` (stereo not given), the Ki in test [2] (read-out: Ki) was over 5000 nM; in test [1] it was 1150 nM.

Turning to `O=C(CCN1CCN(c2ccc(Cl)cc2)CC1)c1csc2ccccc12`, the Ki was over 5000 nM in test [2] (read-out: Ki) and 5000 nM in test [1].

In the case of `COc1ccc(N2CCN(CCC(=O)c3ccccc3)CC2)cc1`, the results for the Ki in test [2] (read-out: Ki) and in test [1] were 5000 nM and over 5000 nM, respectively.

On to `COc1cc(F)ccc1N1CCN(CCC(O)c2csc3ccccc23)CC1` (stereo not given), for which the Ki in test [2] (read-out: Ki) was found to be 500 nM; in test [1], 12 nM.

Regarding `COc1cc(Cl)ccc1N1CCN(CCC(O)c2csc3ccccc23)CC1` (stereo not given), the Ki in test [2] is 361 nM; in test [1] it was 35 nM.

In the case of `COc1ccccc1N1CCN(CCC(O)c2ccccc2)CC1` (stereo not given), the values for the Ki in test [2] and in test [1] were 47.5 nM and over 5000 nM, respectively.

Turning to `O=C(CCN1CCN(c2ccccn2)CC1)c1ccccc1`, the inhibitory constant (Ki) in test [2] (read-out: Ki) is 50 nM; in test [1], over 5000 nM.

With `COc1ccccc1N1CCN(CC/C(=N\O)c2ccccc2)CC1`, the Ki worked out at 17.5 nM in test [2] and 5000 nM in test [1].

With `Cc1cc(C(=O)CCN2CCN(c3ccccc3O)CC2)c(C)s1`, the values for the Ki in test [2] and in test [1] were 7.5 nM and 800 nM, respectively.
